How the values were obtained:
BLEC monolayer = BLEC monolayer integrity: endothelial permeability to Lucifer Yellow (PeLY); format: cell-based, human
Protocol: No significant pH variation was observed after KB treatment compared to the control. The integrity of the BLEC monolayer after 48 h of treatment with KBs was evaluated using the method described by Dehouck et al. (1992). Each coculture condition was performed in triplicate. The fluorescent integrity marker LY was used at a final concentration of 50 μM in RH buffer to obtain the endothelial permeability coefficient (Pe) from the apical-to-basolateral compartment. The fluorescence of LY in each compartment was measured using the excitation/emission wavelength (432/538 nm) using a microplate reader (Synergy H1). In this calculation method, both the filter without cell permeability (PSf = insert filter + matrigel coating) and filter plus cell permeability (PSt = insert filter + matrigel coating + ECs) were taken into account, according to the formula: 1/PSe = 1/[…] PS is the permeability x surface area product (in microliters per minute) obtained by dividing the volume cleared from the donor to the receiver compartment (in μL) for 1 h. […] balance (%) was calculated from the amount of compound recovered in the donor and receiver compartment at the end of the experiment divided by the total amount added in the donor compartment at time zero. To be taken into account for Pe determination, the mass balance should be between 80% and 120%.

MCT1 = assay: Western blot of MCT1 protein level in BLECs; format: cell-based, human; settings: 48 h, 20 mM AcAc, 20 mM βHB or ratio (20 mM AcAc/20 mM βHB), Western blot normalized to β-actin, at least three independent experiments
[1] = test system: [3H]inulin transport across BLECs; assay: [3H]inulin transport across BLECs (non-specific transport marker); format: cell-based, human; settings: 400 nM [3H]inulin, 30 min, 37 °C; for effect on basolateral-to-apical transport of [3H]inulin after ratio KB treatment: 48 h ratio treatment, 200 nM RAP basolateral or 0.5 µM elacridar apical
Protocol: Forty-eight hours after KB treatments, the apical-to-basolateral and the basolateral-to-apical transport of Aβ1-40 across BLECs was investigated as previously described (Briefly, for apical-to-basolateral studies, filters were transferred to new 12-well plates containing 1.5 mL of RH-HSA 0.1% (the receiver solution) per well. In the insert corresponding to the apical compartment, 0.5 mL of RH-HSA 0.1% supplemented with 10 nM Aβ1-40Cy5 peptide was added (the donor solution). For basolateral-to-apical studies, filters were transferred to 12-well plates containing 1.5 mL of RH-HSA 0.1% supplemented with 10 nM fluorescent Aβ1-40Cy5 (the donor solution). In the apical compartment, 0.5 mL of RH-HSA 0.1% (the receiver solution) was added. In parallel, the apical-to-basolateral and the basolateral-to-apical transport of 400 nM [^3H]inulin was performed in the same way as the Aβ1-40Cy5 peptide transport, thus representing a paracellular marker. The BBB integrity was checked by measuring the PeLY as described in Section 4.6. […] At the end of the incubation period, aliquots of the donor and receiver solutions were collected, and the fluorescence compounds (Aβ1-40Cy5 and LY) were measured with a spectrofluorimeter (Synergy H1). The radioactivity of [^3H]inulin was measured using a scintillation counter (Hidex 300 SL, Hidex, Turku, Finland). The permeability (apparent permeability coefficient, cm.sec^−1) of Aβ1-40-Cy5 or [^3H]-inulin was calculated according to the following equation: (1) Papp = (k.V(R))/(A.60) as previously described. k was the transport rate (min^−1) defined as the slope obtained by linear regression of the cumulative fraction absorbed (FAcum) as a function of time (min), V(R) was the volume in the receiver chamber (mL), and A was the area of the filter (cm^2). Determination of the cumulative fraction absorbed (amount permeated), FAcum versus time, FAcum was calculated from: (2) FAcum = ∑ (C(Ri))/(C(Di)), where C(Ri) was the receiver concentration at the end of the interval i and C(Di) was the donor concentration at the beginning of interval i. […]

[2] = test system: Aβ1–40Cy5 peptide transport across BLECs; assay: Aβ1–40Cy5 peptide transport across BLECs; format: cell-based, human; settings: 48 h ratio treatment; 200 nM RAP in basolateral compartment (LRP1 inhibitor) or 0.5 µM elacridar in apical compartment (P-gp inhibitor); 10 nM Aβ1–40Cy5, 30 min, 37 °C
Protocol: Forty-eight hours after KB treatments, the apical-to-basolateral and the basolateral-to-apical transport of Aβ1-40 across BLECs was investigated as previously described (Briefly, for apical-to-basolateral studies, filters were transferred to new 12-well plates containing 1.5 mL of RH-HSA 0.1% (the receiver solution) per well. In the insert corresponding to the apical compartment, 0.5 mL of RH-HSA 0.1% supplemented with 10 nM Aβ1-40Cy5 peptide was added (the donor solution). For basolateral-to-apical studies, filters were transferred to 12-well plates containing 1.5 mL of RH-HSA 0.1% supplemented with 10 nM fluorescent Aβ1-40Cy5 (the donor solution). […] At the end of the incubation period, aliquots of the donor and receiver solutions were collected, and the fluorescence compounds (Aβ1-40Cy5 and LY) were measured with a spectrofluorimeter (Synergy H1). The radioactivity of [^3H]inulin was measured using a scintillation counter (Hidex 300 SL, Hidex, Turku, Finland). […] Determination of the cumulative fraction absorbed (amount permeated), FAcum versus time, FAcum was calculated from: (2) FAcum = ∑ (C(Ri))/(C(Di)), where C(Ri) was the receiver concentration at the end of the interval i and C(Di) was the donor concentration at the beginning of interval i. […] The apical-to-basolateral and the basolateral-to-apical Papp were determined by Equation (1) for each molecule. […]

BLECs = assay: Immunofluorescence of tight junction proteins ZO-1 and claudin-5; format: cell-based, human; settings: 48 h treatment
Protocol: After 48 h of treatments with or without KBs, BLECs were fixed and permeabilized as described in Table 1. Then, a 30-min blocking with PBS-CMF (0.2 g·L^−1 KH2PO4 , 8.0 g·L^−1 NaCl, 2.87 g·L^−1 Na2HPO4-12H2O, and 0.2 g·L^−1 KCl) with 10% (v/v) normal goat serum (NGS) was performed. Then, cells were incubated for 60 min with the primary antibody in PBS-CMF supplemented with 2% NGS at room temperature (RT), against the target protein as described in Table 1.
After three washes in PBS-CMF supplemented with 2% NGS, the cells were incubated with secondary polyclonal antibody (goat anti-rabbit Alexa 568, A11036, Molecular Probes, Eugene, OR, USA) diluted 1:500 in PBS-CMF supplemented with 2% NGS in the dark for 30 min at RT. Hoechst 33358 was used for nuclei staining. After mounting with Mowiol (Sigma-Aldrich) containing 1,4-diazabicyclo [2.2.2]octane (Sigma-Aldrich), images were taken using a Leica microscope (DMRD; Leica Microsystems, Wetzlar, Germany) and processed using ImageJ32 software.

[3] = test system: human in vitro BBB model (BLECs); assay: βHB concentration in the compartments of the in vitro BBB model; format: in vitro ADME; settings: 20 mM βHB added apically, 48 h
Protocol: (§1) During this time, the glucose and βHB concentrations were measured in both the apical compartment and the basolateral compartment. The Precision-Xtra meter (Abbott Labs, Abbott Park, IL, USA) with a glucose or β-ketone sticks was used. In these assays, the glucose and βHB concentrations measured by the sticks were representative of the glucose and βHB present in the culture medium. Data were expressed in mmol·L^−1 for βHB and in g·L^−1 for glucose. The βHB concentration within BLECs was measured at 48 h following the treatment. Briefly, after medium removal, BLECs were washed twice with RH buffer and lysed with RIPA lysis buffer (Millipore Corporation, Burlington, MA, USA). The βHB concentration in the BLECs was normalized by the protein amount using Bradford assay (Bio-rad, Munich, Germany). The amount of βHB into the supernatant was assayed using β-ketone sticks, as described above. The βHB concentration was verified in the culture medium without cells at 37 °C and 5% CO2 to ensure the stability of βHB.

[4] = Stability of βHB in culture medium; format: physicochemical; settings: 37 °C, 5% CO2, over 48 h, β-ketone sticks
Protocol: as §1

GLUT1 = assay: Western blot of GLUT1 protein level in BLECs; format: cell-based, human; settings: 48 h, 20 mM βHB or ratio, Western blot normalized to β-actin, at least three independent experiments
LRP1 = assay: Western blot of LRP1 protein level in BLECs; format: cell-based, human; settings: 48 h, 20 mM βHB or ratio, Western blot normalized to β-actin, at least three independent experiments
PICALM = assay: Western blot of PICALM protein level in BLECs; format: cell-based, human; settings: 48 h, 20 mM βHB or ratio, Western blot normalized to β-actin, at least three independent experiments
PC12 cells = PC12 cells exposed in 0–20 mM βHB; cited from earlier work
Source text: For a few years now, there has been an increased focus on the role of the transport of Aβ peptides across the blood–brain barrier (BBB). It appears that increasing the clearance or reducing the entry of Aβ peptides in the brain could be a promising therapeutic approach for counteracting the pathogenic processes observed in AD [52]. In recent years, there has been mounting interest in the possible utilization of a ketogenic diet (KD) or ketone body (KB) supplementations in the treatment of AD [53, 54]. On the basis of KBs’ beneficial effects on the CNS, and the lack of publ ...

CC(=O)CC(=O)O [AcAc, acetoacetate]
decrease in PeLY compared to the control (BLEC monolayer; 20 mM, 48 h treatment of BLECs, p-value ≤ 0.0001): 14.6%
increase of MCT1 protein level compared to the control (MCT1): 35.9%
decrease of apical-to-basolateral [3H]inulin transport ([1]; after 48 h 20 mM AcAc, scintillation counting, p-value = 0.0005): 12.9%

COc1cc2c(cc1OC)CN(CCc1ccc(NC(=O)c3cccc4c(=O)c5cccc(OC)c5[nH]c34)cc1)CC2 [elacridar, Elacridar, reference compound]
effect on the increased basolateral-to-apical Aβ1–40Cy5 peptide transport after ratio KB treatment [2]: abolished
effect on basolateral-to-apical transport of [3H]inulin after ratio KB treatment [1]: not affected

OC[C@@H](O)[C@@H](O)[C@H](O)[C@H](O)CO [mannitol]
increase in PeLY values compared to non-treated cells (BLEC monolayer; mannitol treatment of the human in vitro BBB model, p-value ≤ 0.0001): 620.6%
staining of tight junction proteins ZO-1 and claudin-5 (intercellular contacts) (BLECs): interruption in the staining for ZO-1 and claudin-5 protein

CC(O)CC(=O)O (stereo not drawn) [βHB, Beta-hydroxybutyric acid]
βHB concentration in the BLEC [3]: ~ 0.5 mM
βHB concentration in the apical compartment [3]: ~ 8.5 mM
βHB concentration in the basolateral compartment [3]: ~ 6.6 mM
initially added βHB not detectable ([3]; 37 °C, 5% CO2): 21.4%
βHB in BLECs, % of the total amount of βHB ([3]; 37 °C, 5% CO2, RIPA lysate, β-ketone sticks, mean of three independent experiments): 2.4%
βHB in the apical (luminal) compartment, % of the total amount of βHB ([3]; 37 °C, 5% CO2, β-ketone sticks (Precision-Xtra meter), mean of three independent experiments): 42.9%
βHB in the basolateral (abluminal) compartment, % of the total amount of βHB ([3]; 37 °C, 5% CO2, β-ketone sticks, mean of three independent experiments): 33.3%
stability of βHB in the culture medium [4]: stable
increase of MCT1 protein level compared to the control (MCT1): 24.9%
increase of GLUT1 protein level compared to the control (GLUT1): 51.9%
upregulation of LRP1 protein level compared to the control (LRP1): 109.3%
increase of PICALM protein level compared to the control (PICALM): 39.1%
cell viability (PC12 cells): 95%

Lucifer Yellow CH dilithium salt
endothelial lucifer yellow permeability (PeLY), control conditions (BLEC monolayer; untreated BLECs, LY 50 µM in RH buffer, apical-to-basolateral, 1 h, fluorescence 432/538 nm, mean ± SEM, three independent experiments in triplicate): 0.92 ± 0.03 × 10^−3 cm∙min^−1

B1: RAP: Receptor-associated protein, human, recombinant, E.coli; standard inhibitor for LRP1 (protein, UniProt P30533 35-357, looked up)
Alpha-2-macroglobulin …: YSREKNQPKPSPKRESGEEFRMEKLNQLWEKAQRLHLPPVRLAELHADLKIQERDELAWKKLKLDGLDEDGEKEARLIRNLNVILAKYGLDGKKDARQVTSNSLSGTQEDGLDDPRLEKLWHKAKTSGKFSGEELDKLWREFLHHKEKVHEYNVLLETLSRTEEIHENVISPSDLSDIKGSVLHSRHTELKEKLRSINQGLDRLRRVSHQGYSTEAEFEEPRVIDLWDLAQSANLTDKELEAFREELKHFEAKIEKHNHYQKQLEIAHEKLRHAESVGDGERVSRSREKHALLEGRTKELGYTVKKHLQDLSGRISRARHNEL
effect on the increased basolateral-to-apical Aβ1–40Cy5 peptide transport after ratio KB treatment [2]: abolished
effect on basolateral-to-apical transport of [3H]inulin after ratio KB treatment [1]: not affected
